According to ChEMBL document CHEMBL4311942, “Design of Trp-Rich Dodecapeptides with Broad-Spectrum Antimicrobial Potency and Membrane-Disruptive Mechanism” (J Med Chem, 2019):
In brackets after ≈: the same amount, converted by molar mass. Activity calls are given as the source filed them. The rule behind the calls is not given here.

Tests used:
Acinetobacter baumannii [1] = experiment: Antibacterial activity against Acinetobacter baumannii AB1901 clinical isolate incubated for 18 to 24 hrs by broth microdilution method; type: functional
Acinetobacter baumannii [2] = experiment: Antibacterial activity against Acinetobacter baumannii AB1902 clinical isolate incubated for 18 to 24 hrs by broth microdilution method; type: functional
Erythrocyte = experiment: Haemolytic activity in human erythrocytes assessed as lowest concentration causing 5% hemolysis after 1 hr; type: ADME, cell-based
Escherichia coli [3] = experiment: Resistance index, ratio of MIC for antibacterial activity against Escherichia coli ATCC 25922 treated over 35 serial passage by sequential passaging method to MIC for antibacterial activity against Escherichia coli ATCC 25922 incubated for 18 to 24 hrs by broth microdilution method; type: functional
Lipopolysaccharide (LPS) = experiment: Displacement of BODIPY-TR-cadaverine from Escherichia coli O111:B4 LPS by spectrofluorophotometric method
Escherichia coli [4] = experiment: Induction of outer membrane permeabilization in Escherichia coli UB1005 assessed as increase in NPN uptake at 0.5 to 4 uM by spectrofluorophotometric assay; type: organism-based
Escherichia coli [5] = experiment: Induction of cytoplasmic membrane depolarization in Escherichia coli UB1005 at 2 uM by DiSC3-5 dye based fluorescence method; type: organism-based
Escherichia coli [6] = experiment: Inhibition of swimming motility of Escherichia coli ATCC 25922 at 1 to 4 uM after 16 hrs; type: functional, organism-based
Pseudomonas aeruginosa [7] = experiment: Antibacterial activity against Pseudomonas aeruginosa PAO1 at sub-MIC treated over 35 serial passages by resistant development assay; type: functional, organism-based
Staphylococcus aureus [8] = experiment: Antibacterial activity against Staphylococcus aureus ATCC 25923 incubated for 18 to 24 hrs by broth microdilution method; type: functional
Staphylococcus aureus [9] = experiment: Antibacterial activity against Staphylococcus aureus ATCC 29213 incubated for 18 to 24 hrs by broth microdilution method; type: functional
Salmonella typhimurium = experiment: Antibacterial activity against Salmonella enterica serovar typhimurium C77-31 incubated for 18 to 24 hrs by broth microdilution method; type: functional, Salmonella enterica subsp. enterica serovar Typhimurium
Escherichia coli [10] = experiment: Antibacterial activity against Escherichia coli UB1005 incubated for 18 to 24 hrs by broth microdilution method; type: functional
Escherichia coli [11] = experiment: Antibacterial activity against Escherichia coli ATCC 25922 incubated for 18 to 24 hrs by broth microdilution method; type: functional
[12] = tested on: Staphylococcus epidermidis; experiment: Antibacterial activity against Staphylococcus epidermidis ATCC 12228 incubated for 18 to 24 hrs by broth microdilution method; type: functional
Escherichia coli [13] = experiment: Antibacterial activity against Escherichia coli 20411 clinical isolate incubated for 18 to 24 hrs by broth microdilution method; type: functional
Pseudomonas aeruginosa [14] = experiment: Antibacterial activity against Pseudomonas aeruginosa 25349 clinical isolate incubated for 18 to 24 hrs by broth microdilution method; type: functional
Staphylococcus aureus [15] = experiment: Antibacterial activity against Staphylococcus aureus 11011 incubated for 18 to 24 hrs by broth microdilution method; type: functional
Escherichia coli [16] = experiment: Antibacterial activity against ciprofloxacin-resistant Escherichia coli ATCC 25922 incubated for 18 to 24 hrs; type: functional
[17] = Resistance index, ratio of MIC for antibacterial activity against ciprofloxacin-resistant Escherichia coli to MIC for Escherichia coli ATCC 25922 incubated for 18 to 24 hrs by broth microdilution method; type: functional
[18] = Salmonella enterica subsp. enterica serovar Typhimurium

| Compound | MIC (Acinetobacter baumannii [1]) [µM] | MIC (Acinetobacter baumannii [2]) [µM] | MIC (Staphylococcus aureus [8]) [µM] | MIC (Staphylococcus aureus [9]) [µM] | MIC (Salmonella typhimurium) [µM] | MIC (Escherichia coli [10]) [µM] | MIC (Escherichia coli [11]) [µM] | MIC [12] [µM] | MIC (Escherichia coli [13]) [µM] | MIC (Pseudomonas aeruginosa [14]) [µM] | MIC (Staphylococcus aureus [15]) [µM] | MIC (Escherichia coli [16]) [µM] | Ratio [17] | MIC (Salmonella typhimurium; [18]) [µM] | other results |
| --- | --- | --- | --- | --- | --- | --- | --- | --- | --- | --- | --- | --- | --- | --- | --- |
| CC[C@H](C)[C@H](NC(=O)CN)C(=O)NCC(=O)N[C@@H](C)C(=O)N[C@H](C(=O)N[C@@H](CC(C)C)C(=O)N[C@@H](CCCCN)C(=O)N[C@H](C(=O)N[C@@H](CC(C)C)C(=O)N[C@H](C(=O)N[C@H](C(=O)NCC(=O)N[C@@H](CC(C)C)C(=O)N1CCC[C@H]1C(=O)N[C@@H](C)C(=O)N[C@@H](CC(C)C)C(=O)N[C@H](C(=O)N[C@@H](CO)C(=O)N[C@@H](Cc1c[nH]c2ccccc12)C(=O)N[C@H](C(=O)N[C@@H](CCCCN)C(=O)N[C@@H](CCCNC(=N)N)C(=O)N[C@@H](CCCCN)C(=O)N[C@@H](CCCNC(=N)N)C(=O)N[C@@H](CCC(N)=O)C(=O)N[C@@H](CCC(N)=O)C(N)=O)[C@@H](C)CC)[C@@H](C)CC)[C@@H](C)O)[C@@H](C)O)C(C)C)C(C)C [MELITTIN] | 2 (≈ 5.69 µg/mL) | 2 (≈ 5.69 µg/mL) | – | – | – | – | – | – | – | – | – | – | – | – | MHC (Erythrocyte): 0.25 µM; Ratio (Escherichia coli [3]): 4; Activity (Lipopolysaccharide (LPS)): Dose-dependent effect; Activity (Escherichia coli [4]): Active; Activity (Escherichia coli [5]): Active; inhibition (Escherichia coli [6]): Active; Activity (Pseudomonas aeruginosa [7]): inactive |
| CN(C)c1ccc(O)c2c1C[C@H]1C[C@H]3[C@H](N(C)C)C(O)=C(C(N)=O)C(=O)[C@@]3(O)C(O)=C1C2=O [MINOCYCLINE] | 0.25 (≈ 0.114 µg/mL) | 0.25 (≈ 0.114 µg/mL) | 0.25 (≈ 0.114 µg/mL) | 0.25 (≈ 0.114 µg/mL) | 8 (≈ 3.66 µg/mL) | 4 (≈ 1.83 µg/mL) | 1 (≈ 0.457 µg/mL) | 0.25 (≈ 0.114 µg/mL) | 2 (≈ 0.915 µg/mL) | 8 (≈ 3.66 µg/mL) | 0.25 (≈ 0.114 µg/mL) | 64 (≈ 29.3 µg/mL) | 64 | – | – |
| CC1COc2c(N3CCN(C)CC3)c(F)cc3c(=O)c(C(=O)O)cn1c23 (stereo unspecified) [OFLOXACIN] | 32 (≈ 11.6 µg/mL) | 32 (≈ 11.6 µg/mL) | 1 (≈ 0.361 µg/mL) | 0.5 (≈ 0.181 µg/mL) | 0.25 (≈ 0.0903 µg/mL) | 0.5 (≈ 0.181 µg/mL) | 0.125 (≈ 0.0452 µg/mL) | 0.5 (≈ 0.181 µg/mL) | 0.125 (≈ 0.0452 µg/mL) | 4 (≈ 1.45 µg/mL) | 1 (≈ 0.361 µg/mL) | 0.5 (≈ 0.181 µg/mL) | 4 | – | – |
| COLISTIN | 1 | 0.5 | 128 | 128 | – | 0.5 | 0.5 | 64 | 0.5 | 0.5 | 32 | 0.5 | 1 | 0.5 | – |
| GENTAMICIN | > 128 | > 128 | 0.25 | 0.5 | – | 4 | 4 | 0.5 | 1 | 2 | 1 | 4 | 1 | 8 | – |
